Assays:
Assay in all cases: relative viability (nuclei count vs DMSO), 5 days (fraction); higher = more cells survive
[1] = compound: C1COCCN1C2=NC(=NC3=C2OC4=C3C=CC=N4)C5=CC(=CC=C5)NC(=O)C6=CN=C(C=C6)N + Cc1cc(Nc2cc(N3CCN(C)CC3)nc(Sc3ccc(NC(=O)C4CC4)cc3)n2)n[nH]1 [Tozasertib] (partner 0.1 µM)
How it was run: (§1)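 Values are medians from duplicate plates. Each reflects relative viability, defined as the nuclei count of treated wells over that of vehicle wells. Lung cancer cell lines in 1536-well plates were pin-tool dosed one day after seeding with one drug alone or with a fixed anchor-drug dose plus five library-drug doses (not always all listed) in √10 steps, then fixed, stained and imaged at 4× after 5 days.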

Entinostat + Foretinib = compound: Nc1ccccc1NC(=O)c1ccc(CNC(=O)OCc2cccnc2)cc1 [Entinostat] + COc1cc2c(Oc3ccc(NC(=O)C4(C(=O)Nc5ccc(F)cc5)CC4)cc3F)ccnc2cc1OCCCN1CCOCC1 [Foretinib] (partner 0.25 µM)
How it was run: as §1

[2] = compound: C1COCCN1C2=NC(=NC3=C2OC4=C3C=CC=N4)C5=CC(=CC=C5)NC(=O)C6=CN=C(C=C6)N + CC(=O)Nc1cccc(-n2c(=O)n(C3CC3)c(=O)c3c(Nc4ccc(I)cc4F)n(C)c(=O)c(C)c32)c1 [Trametinib] (partner 0.02 µM)
How it was run: as §1

[3] = compound: C1COCCN1C2=NC(=NC3=C2OC4=C3C=CC=N4)C5=CC(=CC=C5)NC(=O)C6=CN=C(C=C6)N + COc1cc2c(Oc3ccc(NC(=O)C4(C(=O)Nc5ccc(F)cc5)CC4)cc3F)ccnc2cc1OCCCN1CCOCC1 [Foretinib] (partner 0.25 µM)
How it was run: as §1

Cell Line	relative viability ([1]; first compound 0.02 µM)	relative viability ([1]; first compound 0.06325 µM)	relative viability ([1]; first compound 0.2 µM)	relative viability ([1]; first compound 0.6325 µM)	relative viability ([1]; first compound 2 µM)	relative viability (Entinostat + Foretinib; first compound 0.02 µM)	relative viability (Entinostat + Foretinib; first compound 0.06325 µM)	relative viability (Entinostat + Foretinib; first compound 0.2 µM)	relative viability (Entinostat + Foretinib; first compound 0.6325 µM)	relative viability (Entinostat + Foretinib; first compound 2 µM)	relative viability ([2]; first compound 0.02 µM)	relative viability ([2]; first compound 0.06325 µM)	relative viability ([2]; first compound 0.2 µM)	relative viability ([2]; first compound 0.6325 µM)	relative viability ([2]; first compound 2 µM)	relative viability ([3]; first compound 0.02 µM)	relative viability ([3]; first compound 0.06325 µM)	relative viability ([3]; first compound 0.2 µM)	relative viability ([3]; first compound 0.6325 µM)	relative viability ([3]; first compound 2 µM)
NCI-H2023	0.371	0.369	0.158	0.142	0.13	0.765	0.749	0.408	0.162	0.11	0.509	0.717	0.564	0.416	0.246	0.889	1.07	0.765	0.759	0.511
ABC-1	0.177	0.183	0.167	0.406	0.222	1.05	1.19	0.906	0.805	0.545						1.09	1.07	0.996	1.04	0.884
LC-2-ad	0.428	0.499	0.46	0.473	0.392	0.907	0.905	0.723	0.512	0.338	0.959	0.983	0.962	0.899	0.654	0.858	0.984	0.977	1.06	0.9
NCI-H441	0.609	0.496	0.416	0.401	0.299	1.08	1.05	0.805	0.377	0.298	0.453	0.423	0.29	0.337	0.312	1.13	0.918	0.786	0.84	0.493
NCI-H1915	0.439	0.492	0.392	0.408	0.264	1.06	1.06	1.07	1	0.592	0.3	0.313	0.298	0.218	0.281	1.11	1.18	1.11	1.13	0.856
NCI-H1299						1.07	1.07	1.01	0.855	0.879						1.01	1.08	1.1	1.05	0.806
HCC-827	0.415	0.435	0.441	0.438	0.343	0.954	0.962	0.83	0.737	0.355	0.488	0.573	0.459	0.483	0.408	1.01	1.06	0.99	1.08	0.97
EMC-BAC-2	0.302	0.289	0.26	0.299	0.303	1.03	0.938	0.814	0.608	0.513	0.838	0.924	0.853	0.789	0.725	0.991	1.07	1.01	0.902	0.766
NCI-H596	0.85	0.932	0.874	0.761	0.661	0.851	0.727	0.913	0.698	0.655	0.772	0.87	0.735	0.724	0.593	1.13	0.813	0.893	0.709	0.616
NCI-H1792											0.451	0.477	0.368	0.374	0.231					
NCI-H2009	0.8	0.749	0.726	0.655	0.433	1.15	1.19	1.19	0.942	0.894	0.264	0.273	0.221	0.245	0.256	1.28	1.24	1.19	1.11	0.932
NCI-H2347	0.513	0.711	0.42	0.544	0.387	0.837	0.812	0.454	0.254	0.37	0.302	0.264	0.289	0.314	0.258	1.09	0.962	0.861	1.07	0.657
SW 900	0.519	0.762	0.371	0.373	0.279	0.946	0.878	1.04	0.674	0.533	0.596	0.965	0.807	0.583	0.513	0.944	0.93	0.751	1.5	0.735
NCI-H1563						0.543	0.918	0.823	0.77	0.609						0.833	0.911	0.862	0.856	0.823
Calu-6						0.889	0.849	0.873	0.565	0.513						1.12	0.912	0.987	0.851	0.648
EBC-1						0.0998	0.0994	0.101	0.0814	0.0684						0.115	0.0996	0.111	0.102	0.0879
NCI-H1703						0.322	0.346	0.49	0.812	0.688						0.284	0.413	0.371	0.305	0.285
IA-LM						1.13	1.22	1.43	1.05	0.764						0.999	1.38	0.867	0.922	0.326
HCC-44	0.882	1.04	0.829	0.766	0.546						1.12	1.31	1.04	1.09	1					
NCI-H1648	0.468	0.48	0.473		0.617						0.54	0.534	0.456	0.405	0.482					
NCI-H522	0.491	0.497	0.472	0.374	0.541						0.797	0.901	0.681	0.758	0.592					
A549						1.01	0.942	0.878	0.757	0.288						1.05	0.987	0.988	1.06	0.225
